Test results as given in PubChem BioAssay (NCI).
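Briefly, cells in 96-well plates were exposed to five compound concentrations for 48 h, and endpoints were estimated by linear interpolation. TGI: total growth inhibition.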

Columns and labels:
Assay in all cases: inhibition of tumour cell growth, NCI panel, 48 h
[1] = tested on: M19-MEL melanoma
[2] = tested on: RXF-631 renal
[3] = tested on: SNB-78 CNS
[4] = tested on: KM20L2 colon
[5] = tested on: DMS 273 small cell lung
[6] = tested on: XF 498 CNS
[7] = tested on: DLD-1 colon
[8] = tested on: DMS 114 small cell lung
[9] = tested on: HOP-18 NSCLC
[10] = tested on: LXFL 529 NSCLC

| SMILES | TGI [1] | TGI [2] | TGI [3] | TGI [4] | TGI [5] | TGI [6] | TGI [7] | TGI [8] | TGI [9] | TGI [10] |
| --- | --- | --- | --- | --- | --- | --- | --- | --- | --- | --- |
| CC(=O)OCCOCNC(=S)N/N=C/c1cc([N+](=O)[O-])ccc1O | > 100 µM | > 100 µM | > 100 µM | > 100 µM | > 100 µM | > 100 µM | > 100 µM | > 100 µM | > 100 µM | > 100 µM |
| O=C1Cc2nc(CO)c(CO)c(CO)c2CO1 | > 100 µM |  | > 100 µM | > 100 µM | > 100 µM |  | > 100 µM | > 100 µM | > 100 µM | > 100 µM |
| COc1ccc(N2C(=O)C3c4[nH]c5ccccc5c4C4CC(C)(C)CC(C)(C)C4C3C2=O)cc1 (stereo not given) | 33.7 µM |  | 55.3 µM | > 100 µM | 23.8 µM | 36.8 µM | > 100 µM | 97.7 µM | 36.5 µM | 27.7 µM |
| c1cc2nnsc2s1 | > 100 µM |  | > 100 µM | > 100 µM | > 100 µM | > 100 µM | > 100 µM |  | > 100 µM | > 100 µM |
| COc1ccc(C2ON(c3ccccc3)CC=C2C)cc1 (stereo not given) | > 100 µM | > 100 µM | > 100 µM | > 100 µM | > 100 µM | > 100 µM | > 100 µM |  |  | > 100 µM |
| COc1cc(CC2c3cc(OC)c(OC)cc3CCN2C)ccc1O (stereo not given) |  |  | > 100 µM | > 100 µM |  | > 100 µM | > 100 µM |  | > 100 µM | > 100 µM |
| CN/C=C(\C(=O)c1ccc(OC)c(OC)c1)c1ccc(OC)cc1 | 34.3 µM | 32.5 µM |  |  | 21.7 µM | 33.2 µM | 31.7 µM | 46.8 µM | 20.9 µM | 30.2 µM |
| COc1ccc2c(=O)cc(-c3ccc(OC)c(OC)c3OC)oc2c1 | > 100 µM | > 100 µM |  | 77.3 µM |  | > 100 µM | > 100 µM | > 100 µM |  | > 100 µM |
| CC[C@]12C=CCN3CCC4(c5cc([C@@]6(C(=O)OC)CC7CN(CCc8c6[nH]c6ccccc86)C[C@@H]6CCCC[C@H]76)c(OC)cc5N(C)C4[C@](O)(C(=O)OC)C1OC(C)=O)[C@@H]32 (stereo not given in full) | 16.3 µM |  | 19.9 µM |  |  | 3.79 µM | 13.8 µM | < 0.01 µM |  | 1.71 µM |
| O=c1[nH]c(=O)n(C2CC(O)C(CO)O2)cc1C(F)(C(F)(F)F)C(F)(F)F (stereo not given) | > 100 µM |  | > 100 µM | > 100 µM | > 100 µM | > 100 µM | > 100 µM | > 100 µM | > 100 µM | > 100 µM |
| CCOC(=O)C1=C(C)NC2=C(C(=O)N(c3ccccc3)C2c2ccccc2)C1c1ccccc1 (stereo not given) | 32.3 µM | 32.9 µM | 45.3 µM |  |  | 37.5 µM | 34.5 µM | 32.4 µM | 37.7 µM | 30.3 µM |
| CC(=O)Nc1ccc(-c2nnc(SCC(=O)Nc3cccc(Cl)c3)o2)cc1 | > 100 µM |  | > 100 µM | 31.4 µM | 62.4 µM |  | 28.3 µM | 6.07 µM | 25.5 µM | 24.8 µM |
